Values of other authors as cited in US11167084B2, “Control device for controlling the administration of propofol to a patient” (Fresenius Vial SAS, priority 2016, dated 2021).
≈ marks a conversion by molar mass, not a printed value.

Settings: Hill equation relating effect-site concentration to BIS; Emax=E0=100, y=2; FIG. 1 from T. A. Lim, Br J Anaesth 2006

SMILES: CC(C)c1cccc(C(C)C)c1O [propofol]
- EC50 (propofol effective concentration 50, effect-site): 4.14 µg/mL (≈ 23.2 µM)
